According to patent publication US7700584B2 (Hangzhou Minsheng Pharmaceuticals Co., Ltd., priority 2004, dated 2010):
≈ marks a conversion by molar mass, not a printed value. Where a name gives a salt, the structure may show the parent alone. Read-outs that look alike come from different tables or passages of the source.

Assays:
[1] = target: T1, HIV-1 reverse transcriptase (Human immunodeficiency virus type 1 group M subtype B, UniProt P04585); assay: Screening for the in vitro activity against the HIV-1 reverse transcriptase; format: biochemical; conditions: initial concentration 200 μg/ml
T1 construct: purchased
Method: Principle of the test: The template to which the HIV-1 reverse transcriptase interacts was covered onto the enzyme-lined template. In the optimal reaction conditions and system, HIV-1 RT will put the substrate comprising Biotin-dUTP onto the reaction template. The activity of the enzyme was measured as the amount of the integrating Biotin-dUTP in the reaction by using streptavidin-labeled horseradish peroxidase. Adding the sample to the reaction system can identify inhibitor of the enzyme.
1. HIV-1 RT: commercially available.
2. Treatment of the samples: Before use, the sample was dissolved in DMSO at a suitable concentration, then serially diluted (5×) with double distilled water, five serial dilutions per sample.
4. Methods: The diluted sample was added into the reaction buffer containing Biotin-dUTP and the genetic engineered target enzyme, and incubated in the optimal reaction conditions. A streptavidin-labeled horseradish peroxidase was added to visual the system, and OD450 was measured.

293 cells = assay: Cell status of 293 cells treated with sample alone (herpes virus screening); conditions: 200 μg/ml, 24 hrs
[2] = tested on: LLC mouse Lewis lung carcinoma; assay: In vitro inhibition rate to tumor cells (MTT), LLC; format: cell-based; conditions: 50 μg/ml; for inhibition at 50 µg/mL: Mus musculus, Lewis lung carcinoma
[3] = tested on: HL-60 human promyelocytic leukemia; assay: In vitro anti-tumor IC50 (MTT), HL-60; format: cell-based; conditions: Table 4
Method: (§1) (1) Single cell suspension was seeded into 96-well plates (the cells was diluted in the PRMI-1640 minimum medium to 3×10^4 cells/ml, […] diluted cells/well). […] The experiments were performed in quadruplicate.
(§2) (2) The medium was removed. Solutions of the anti-tumor agents (50 compounds) were prepared in a freshly prepared medium at serial concentrations. […] of the solution was added into each well. Incubation was continued for 48 hours.
(§3) (3) 20 ug of 2 mg/ml MTT was added into each well, and incubated for 4 hours.
(§4) (4) The medium was removed from the well. The microplates were swiftly turned down to throw-off the medium. […] of DMSO was added into each well, and vortexed at room temperature for 10 minutes.
(§5) (5) OD value (λ=570 nm) was measured with an Enzyme-Linked Detector.
(§6) (6) The graph of cell vitality was plotted, and IC50 was calculated.

[4] = tested on: Bel-7402 human hepatic carcinoma; assay: In vitro inhibition rate to tumor cells (MTT), Bel-7402; format: cell-based; conditions: for inhibition rate, Results (%) Bel-7402: 50 μg/ml; for inhibition at 50 µg/mL: Homo sapiens
[5] = tested on: HL-60 human promyelocytic leukemia; assay: In vitro inhibition rate to tumor cells (MTT), HL-60; format: cell-based; conditions: for inhibition rate, Results (%) HL-60: 50 μg/ml; for inhibition at 50 µg/mL: Homo sapiens
[6] = tested on: A-549 human lung adenocarcinoma; assay: In vitro inhibition rate to tumor cells (MTT), A-549; format: cell-based; conditions: for inhibition rate, Results (%) A-549: 50 μg/ml; for inhibition at 50 µg/mL: Homo sapiens
[7] = tested on: SMMC-7721 human hepatic carcinoma; assay: In vitro inhibition rate to tumor cells (MTT), SMMC-7721; format: cell-based; conditions: for inhibition at 50 µg/mL: Homo sapiens; for inhibition rate, Results (%) SMMC-7721: 50 μg/ml, hydrochloride
[8] = tested on: U-937 human histocytic lymphoma; assay: In vitro anti-tumor IC50 (MTT), U-937; format: cell-based; conditions: Table 4
Method: as §1, §2, §3, §4, §5, §6

[9] = tested on: Hela human cervical carcinoma; assay: In vitro inhibition rate to tumor cells (MTT), Hela; format: cell-based; conditions: for inhibition at 50 µg/mL: Homo sapiens, HeLa
[10] = tested on: MCF-7 human mammary adenocarcinoma; assay: In vitro inhibition rate to tumor cells (MTT), MCF-7; format: cell-based; conditions: for inhibition rate, Results (%) MCF-7: 50 μg/ml; for inhibition at 50 µg/mL: Homo sapiens
[11] = tested on: U-937 human histocytic lymphoma; assay: In vitro inhibition rate to tumor cells (MTT), U-937; format: cell-based; conditions: for inhibition rate, Results (%) U-937: 50 μg/ml; for inhibition at 50 µg/mL: Homo sapiens
[12] = target: T2, HIV-1 proteinase (HIV-1 PR) (Human immunodeficiency virus type 1 group M subtype B, UniProt P04585); assay: Screening for in vitro activity against HIV-1 proteinase; format: biochemical; conditions: for IC50: five 5× serial dilutions from 50 μg/ml
T2 construct: HIV-1 proteinase digests the fluorescent-labeled substrate; purchased
Outline: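 Inhibition was scored from product fluorescence after the enzyme was added to buffer holding the labeled substrate and the test sample. Samples were five serial 5× dilutions in water from a DMSO solution. Indinavir served as the reference control; the enzyme was recombinant HIV-1 PR.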

[13] = tested on: Hela human cervical carcinoma; assay: In vitro anti-tumor IC50 (MTT), Hela; format: cell-based; conditions: Table 4
[14] = Table 2 (repeated screening), hydrochloride

Which results are given for `CC(C)C1CC23OC1(O)C/C(=C\Nc1ccc(O)cc1)C2CCC3C` (stereo not drawn) [Compound 5, Curcumol p-hydroxy aniline]?
IC50 ([1]; read-out: IC50): > 582 µM; Cytopathy and cell status, Sample (293 cells): Good; inhibition rate, Results (%) LLC ([2]; Table 1): 3.21%; inhibition rate, Results (%) LLC ([2]; Table 3 (repeated screening)): 86.54%; inhibition at 50 µg/mL ([2]; Table 2 (repeated screening)): 85.1%; IC50 ([3]; Homo sapiens, HL-60, read-out: IC50 (ug/ml) against tumor cell lines, HL-60): 0.4 µg/mL (≈ 1.16 µM); inhibition rate, Results (%) Bel-7402 ([4]; Table 3 (repeated screening)): 78.97%; inhibition at 50 µg/mL ([4]; Bel-7402, 50 μg/ml, Table 2 (repeated screening), read-out: inhibition rate, Results (%) Bel-7402): 81.5%; inhibition at 50 µg/mL ([4]; Bel-7402, read-out: inhibition rate, Results (%) Bel-7402, 50 μg/ml, Table 1): 80.2%; inhibition rate, Results (%) HL-60 ([5]; Table 3 (repeated screening)): 95.14%; inhibition at 50 µg/mL ([5]; HL-60, 50 μg/ml, Table 2 (repeated screening), read-out: inhibition rate, Results (%) HL-60): 90.9%; inhibition at 50 µg/mL ([5]; HL-60, read-out: inhibition rate, Results (%) HL-60, 50 μg/ml, Table 1): 91.3%; inhibition rate, Results (%) A-549 ([6]; Table 3 (repeated screening)): 91.23%; inhibition at 50 µg/mL ([6]; A549, 50 μg/ml, Table 2 (repeated screening), read-out: inhibition rate, Results (%) A-549): 90%; inhibition at 50 µg/mL ([6]; A549, read-out: inhibition rate, Results (%) A-549, 50 μg/ml, Table 1): 90.3%; inhibition at 50 µg/mL ([7]; SMMC-7721, 50 μg/ml, Table 2 (repeated screening), read-out: inhibition rate, Results (%) SMMC-7721): 86.9%; inhibition at 50 µg/mL ([7]; SMMC-7721, read-out: inhibition rate, Results (%) SMMC-7721, 50 μg/ml, Table 1): 85%; IC50 ([8]; Homo sapiens, U-937, read-out: IC50 (ug/ml) against tumor cell lines, U-937): 0.42 µg/mL (≈ 1.22 µM); inhibition rate, Results (%) Hela ([9]; 50 μg/ml, Table 3 (repeated screening)): 94.55%; inhibition at 50 µg/mL ([9]; 50 μg/ml, Table 2 (repeated screening), read-out: inhibition rate, Results (%) Hela): 92.3%; inhibition at 50 µg/mL ([9]; read-out: inhibition rate, Results (%) Hela, 50 μg/ml, Table 1): 94.4%; inhibition rate, Results (%) MCF-7 ([10]; Table 3 (repeated screening)): 95.53%; inhibition at 50 µg/mL ([10]; MCF7, 50 μg/ml, Table 2 (repeated screening), read-out: inhibition rate, Results (%) MCF-7): 91%; inhibition at 50 µg/mL ([10]; MCF7, read-out: inhibition rate, Results (%) MCF-7, 50 μg/ml, Table 1): 90.3%; inhibition rate, Results (%) U-937 ([11]; Table 3 (repeated screening)): 91.03%; inhibition at 50 µg/mL ([11]; U-937, 50 μg/ml, Table 2 (repeated screening), read-out: inhibition rate, Results (%) U-937): 95.6%; inhibition at 50 µg/mL ([11]; U-937, read-out: inhibition rate, Results (%) U-937, 50 μg/ml, Table 1): 94%; Inhibition rate ([12]; 0.08 μg/ml): 4.38; Inhibition rate ([12]; 0.40 μg/ml): 9.00; Inhibition rate ([12]; 2.0 μg/ml): 10.30; inhibition at 10 µg/mL ([12]; 10 μg/ml, read-out: Inhibition rate): 11.2%; Inhibition rate ([12]; 50 μg/ml): 1.01; IC50 ([12]; read-out: IC50): > 146 µM; IC50 ([13]; Homo sapiens, HeLa, read-out: IC50 (ug/ml) against tumor cell lines, Hela): 0.32 µg/mL (≈ 0.932 µM)

What does the source list for `CC(C)C1CC23OC1(O)C/C(=C\Nc1ccc(O)cc1)C2CCC3C` (stereo not drawn) [Compound 6, Curcumol p-hydroxy aniline hydrochloride]?
IC50 [1]: > 582 µM; Cytopathy and cell status, Sample (293 cells): Good; inhibition rate, Results (%) LLC ([2]; Table 1, hydrochloride): 88.23%; inhibition rate, Results (%) LLC [2, 14]: 87.02%; inhibition at 50 µg/mL ([2]; Table 3 (repeated screening)): 85%; IC50 (ug/ml) against tumor cell lines, HL-60 ([3]; hydrochloride): 0.51 µg/mL; inhibition rate, Results (%) Bel-7402 ([4]; Table 1, hydrochloride): 81.84%; inhibition rate, Results (%) Bel-7402 [4, 14]: 81.84%; inhibition at 50 µg/mL ([4]; Bel-7402, 50 μg/ml, Table 3 (repeated screening), read-out: inhibition rate, Results (%) Bel-7402): 83.6%; inhibition rate, Results (%) HL-60 ([5]; Table 1, hydrochloride): 93.21%; inhibition rate, Results (%) HL-60 [5, 14]: 93.21%; inhibition at 50 µg/mL ([5]; HL-60, 50 μg/ml, Table 3 (repeated screening), read-out: inhibition rate, Results (%) HL-60): 95.5%; inhibition rate, Results (%) A-549 ([6]; Table 1, hydrochloride): 91.84%; inhibition rate, Results (%) A-549 [6, 14]: 92.84%; inhibition at 50 µg/mL ([6]; A549, 50 μg/ml, Table 3 (repeated screening), read-out: inhibition rate, Results (%) A-549): 90.1%; inhibition rate, Results (%) SMMC-7721 ([7]; Table 1): 86.12%; inhibition rate, Results (%) SMMC-7721 ([7]; Table 2 (repeated screening)): 86.12%; inhibition at 50 µg/mL ([7]; SMMC-7721, 50 μg/ml, Table 3 (repeated screening), read-out: inhibition rate, Results (%) SMMC-7721): 87.1%; IC50 (ug/ml) against tumor cell lines, U-937 ([8]; hydrochloride): 0.56 µg/mL; inhibition rate, Results (%) Hela ([9]; 50 μg/ml, Table 1, hydrochloride): 95.26%; inhibition rate, Results (%) Hela ([9]; 50 μg/ml, Table 2 (repeated screening), hydrochloride): 95.26%; inhibition at 50 µg/mL ([9]; 50 μg/ml, Table 3 (repeated screening), read-out: inhibition rate, Results (%) Hela): 92.3%; inhibition rate, Results (%) MCF-7 ([10]; Table 1, hydrochloride): 91.89%; inhibition rate, Results (%) MCF-7 [10, 14]: 91.89%; inhibition at 50 µg/mL ([10]; MCF7, 50 μg/ml, Table 3 (repeated screening), read-out: inhibition rate, Results (%) MCF-7): 94.1%; inhibition rate, Results (%) U-937 ([11]; Table 1, hydrochloride): 90.92%; inhibition rate, Results (%) U-937 [11, 14]: 94.12%; inhibition at 50 µg/mL ([11]; U-937, 50 μg/ml, Table 3 (repeated screening), read-out: inhibition rate, Results (%) U-937): 94.1%; Inhibition rate ([12]; 0.08 μg/ml, hydrochloride): 0.89; Inhibition rate ([12]; 0.40 μg/ml, hydrochloride): 1.7; Inhibition rate ([12]; 2.0 μg/ml, hydrochloride): 2.99; Inhibition rate ([12]; 10 μg/ml, hydrochloride): 13.15; Inhibition rate ([12]; 50 μg/ml, hydrochloride): 7.07; IC50 [12]: > 146 µM; IC50 (ug/ml) against tumor cell lines, Hela ([13]; hydrochloride): 0.35 µg/mL
